Laboratory results published in patent US20110015080A1, “Solution-based methods for RNA expression profiling” (MASSACHUSETTS INSTITUTE OF TECHNOLOGY, priority 2005, published 2011).
Values joined by “and” are separate entries in the source; they are usually repeats but may differ in a detail not shown here. Equal entries are not always repeated.

Test system: HL60 (human promyelocytic leukemia) cells
Assay: LMA-FlexMAP analysis of microtiter well cultures of HL60 cells treated with tretinoin or DMSO, KNN classification
[1] = HL60 microtiter plate wells tretinoin40-47 (replicates)

## CC1=C(/C=C/C(C)=C/C=C/C(C)=C/C(=O)O)C(C)(C)CCC1 [tretinoin, all-trans-retinoic acid]
[1]
  NM_000698 LUA#14 FlexMap level: 45.5 and 156 and 269 and 394 and 342 and 297.5 and 363 and 352
  NM_000875 LUA#55 FlexMap level: 184 and 1002 and 1389.5 and 1772 and 1303 and 1192 and 1271 and 810
  NM_000884 LUA#81 FlexMap level: 82 and 506 and 875 and 897 and 732.5 and 789 and 805 and 513.5
  NM_000962 LUA#7 FlexMap level: 63.5 and 391 and 761 and 776 and 470 and 646.5 and 671.5 and 452
  NM_001034 LUA#67 FlexMap level: 65 and 447 and 989 and 779 and 733.5 and 645 and 1063 and 476
  NM_001101 LUA#34 FlexMap level: 260.5 and 1606 and 2206 and 2257 and 1647 and 1943 and 1881 and 904
  NM_001469 LUA#79 FlexMap level: 65 and 320.5 and 885 and 739 and 765 and 734 and 561 and 370
  NM_001498 LUA#18 FlexMap level: 126.5 and 890.5 and 1632 and 1563.5 and 1134 and 1467 and 1510 and 888
  NM_001684 LUA#23 FlexMap level: 884 and 3012 and 3316.5 and 3512 and 3036 and 2755.5 and 2662 and 1478
  NM_001948 LUA#84 FlexMap level: 255 and 1430 and 2470.5 and 2273.5 and 1891 and 2131 and 2132.5 and 1104
  NM_001974 LUA#11 FlexMap level: 38.5 and 98 and 351 and 256 and 258 and 253.5 and 286.5 and 224
  NM_002166 LUA#25 FlexMap level: 411.5 and 1693.5 and 2999 and 2964 and 2068 and 1985 and 2518 and 1239
  NM_002358 LUA#53 FlexMap level: 64 and 339 and 572 and 611 and 366 and 481 and 531 and 433
  NM_002467 LUA#90 FlexMap level: 383 and 983.5 and 1643 and 1800 and 1920 and 1518 and 1725 and 1034
  NM_002468 LUA#40 FlexMap level: 48 and 285.5 and 324 and 728 and 896.5 and 343 and 632 and 464
  NM_002539 LUA#74 FlexMap level: 94 and 559 and 886 and 952 and 715 and 861.5 and 822 and 535
  NM_002624 LUA#36 FlexMap level: 53 and 180.5 and 397 and 381 and 330.5 and 336 and 400.5 and 394
  NM_002664 LUA#38 FlexMap level: 73 and 478 and 906 and 798 and 599 and 773 and 748 and 512
  NM_002970 LUA#42 FlexMap level: 92 and 298 and 598 and 589 and 622.5 and 577.5 and 586 and 478
  NM_002982 LUA#45 FlexMap level: 286 and 2331 and 2514 and 4037 and 4231 and 2722 and 2898 and 1696.5
  NM_003132 LUA#68 FlexMap level: 41 and 126 and 264.5 and 264 and 195.5 and 257 and 296 and 327.5
  NM_003172 LUA#19 FlexMap level: 818 and 3200.5 and 3348 and 3577.5 and 2983 and 2898 and 2747 and 1471
  NM_003332 LUA#43 FlexMap level: 274 and 646 and 1341.5 and 1324 and 1984.5 and 1651 and 2226 and 1241.5
  NM_003581 LUA#62 FlexMap level: 62.5 and 372 and 962 and 808 and 751 and 735.5 and 801 and 515
  NM_003644 LUA#17 FlexMap level: 69 and 255 and 415 and 428 and 359 and 374 and 395 and 302
  NM_003752 LUA#82 FlexMap level: 115.5 and 536.5 and 1061 and 1015.5 and 768.5 and 1020 and 912.5 and 596
  NM_003825 LUA#8 FlexMap level: 81.5 and 192.5 and 338 and 383.5 and 307.5 and 331 and 502 and 476.5
  NM_003879 LUA#24 FlexMap level: 225 and 1355.5 and 1937.5 and 1983.5 and 1275 and 1677 and 1564 and 923
  NM_004079 LUA#21 FlexMap level: 350 and 2202 and 3008 and 3030.5 and 2326 and 2816 and 2701 and 1488
  NM_004095 LUA#59 FlexMap level: 72 and 383 and 714 and 665 and 496.5 and 650.5 and 593.5 and 442
  NM_004106 LUA#44 FlexMap level: 47 and 142 and 253.5 and 302 and 321 and 271 and 273.5 and 267
  NM_004134 LUA#76 FlexMap level: 78 and 432.5 and 873 and 866 and 531 and 759 and 744 and 493
  NM_004152 LUA#31 FlexMap level: 58 and 337 and 710 and 811 and 628.5 and 782 and 652 and 408.5
  NM_004514 LUA#46 FlexMap level: 176 and 834 and 1159.5 and 1224 and 964 and 992 and 1017 and 626
  NM_004526 LUA#88 FlexMap level: 642 and 1081.5 and 1122 and 840 and 1033 and 1012 and 641.5
  NM_004602 LUA#32 FlexMap level: 458.5 and 678 and 736.5 and 1957 and 1765.5 and 664 and 571.5 and 773.5
  NM_004631 LUA#52 FlexMap level: 86.5 and 322 and 705 and 629 and 524 and 633 and 667 and 532
  NM_004723 LUA#20 FlexMap level: 89 and 620 and 1056 and 982 and 761 and 886 and 853 and 494.5
  NM_004741 LUA#89 FlexMap level: 131 and 383 and 972 and 1003 and 933 and 920 and 1126 and 571
  NM_004759 LUA#37 FlexMap level: 40.5 and 67.5 and 186.5 and 169 and 134.5 and 142 and 145 and 190
  NM_004782 LUA#4 FlexMap level: 163 and 811 and 1306 and 1264 and 1063.5 and 1077 and 1094 and 639
  NM_005008 LUA#77 FlexMap level: 73 and 425 and 885 and 923 and 779.5 and 801 and 828 and 525
  NM_005375 LUA#86 FlexMap level: 273 and 1380 and 2455 and 2357.5 and 2068 and 2193 and 2264 and 1273.5
  NM_005566 LUA#85 FlexMap level: 129.5 and 862.5 and 1842.5 and 1550 and 1000 and 1282 and 1196 and 592
  NM_005736 LUA#1 FlexMap level: 92 and 522 and 909 and 1432 and 1896 and 847 and 1205.5 and 695
  NM_005914 LUA#60 FlexMap level: 303 and 1363 and 2538.5 and 2273 and 1739 and 1694 and 1933.5 and 1154.5
  NM_005915 LUA#72 FlexMap level: 48 and 300 and 495 and 474 and 315.5 and 496 and 401.5 and 256.5
  NM_005952 LUA#66 FlexMap level: 104 and 573 and 891 and 961 and 623.5 and 847.5 and 775 and 571
  NM_005980 LUA#73 FlexMap level: 35.5 and 83 and 102 and 162 and 149 and 95 and 114 and 168
  NM_006019 LUA#35 FlexMap level: 41 and 192.5 and 363 and 400.5 and 353 and 361 and 402 and 332
  NM_006138 LUA#56 FlexMap level: 70 and 325.5 and 443 and 659.5 and 488 and 437 and 429 and 341
  NM_006432 LUA#27 FlexMap level: 90 and 394 and 854.5 and 800 and 695 and 670 and 719 and 450
  NM_006452 LUA#71 FlexMap level: 207.5 and 1176 and 1736 and 1656.5 and 1374 and 1531 and 1587 and 911.5
  NM_006457 LUA#13 FlexMap level: 36 and 51 and 83 and 94 and 84 and 95 and 132 and 200
  NM_006773 LUA#47 FlexMap level: 164 and 717 and 1137 and 1120.5 and 783 and 937.5 and 907 and 576.5
  NM_006948 LUA#51 FlexMap level: 34 and 49 and 82 and 95 and 83 and 79.5 and 85.5 and 106.5
  NM_006985 LUA#58 FlexMap level: 90 and 720 and 1223 and 1310 and 813 and 1136.5 and 983 and 635
  NM_007282 LUA#16 FlexMap level: 778.5 and 3067.5 and 3626 and 3678 and 3097 and 3055 and 2958.5 and 1505
  NM_007331 LUA#50 FlexMap level: 88 and 474 and 915.5 and 927.5 and 770 and 739 and 835 and 583
  NM_013402 LUA#54 FlexMap level: 114 and 705 and 1150 (2×) and 806 and 1051.5 and 1087 and 711
  NM_014288 LUA#48 FlexMap level: 154 and 477.5 and 801 and 816 and 527.5 and 706 and 650 and 453
  NM_014333 LUA#26 FlexMap level: 180.5 and 949.5 and 1577 and 1549 and 1309 and 1337 and 1390 and 811
  NM_014366 LUA#61 FlexMap level: 383 and 1773 and 2236 and 2380 and 1850 and 1787.5 and 1681.5 and 1009.5
  NM_014573 LUA#70 FlexMap level: 43 and 143 and 320 and 325 and 274 and 243 and 407.5 and 300
  NM_014962 LUA#5 FlexMap level: 152.5 and 726 and 1269 and 1290 and 1213 and 1076 and 1134 and 717
  NM_015201 LUA#57 FlexMap level: 182 and 1154 and 1768 and 1714 and 1251 and 1398.5 and 1507 and 930.5
  NM_016061 LUA#9 FlexMap level: 134 and 674 and 1086 and 1267.5 and 863 and 975 and 1073.5 and 741
  NM_017440 LUA#49 FlexMap level: 101 and 405.5 and 707 and 774 and 716 and 607 and 693 and 477
  NM_018115 LUA#63 FlexMap level: 746.5 and 3193 and 3722 and 4141 and 3225.5 and 3292.5 and 3054 and 1569
  NM_018164 LUA#69 FlexMap level: 52 and 170 and 429 and 380 and 304.5 and 304 and 358.5 and 234
  NM_018217 LUA#3 FlexMap level: 189 and 990 and 1514 and 1581 and 1499 and 1286 and 1386 and 854.5
  NM_018256 LUA#83 FlexMap level: 102 and 717 and 1252 and 1104 and 692.5 and 1077 and 929 and 470
  NM_018890 LUA#33 FlexMap level: 562 and 2557 and 3812.5 and 4178 and 4310 and 3724.5 and 2984 and 1462.5
  NM_019058 LUA#75 FlexMap level: 258 and 1804 and 2807 and 2882 and 2288 and 2430 and 2201 and 1184
  NM_020117 LUA#78 FlexMap level: 236.5 and 1585 and 2193 and 2242.5 and 1690 and 1988 and 1734 and 848.5
  NM_021103 LUA#41 FlexMap level: 591.5 and 1730 and 2238 and 2731 and 2283 and 1975 and 1828.5 and 1027
  NM_021203 (LUA#80) FlexMap level: 53 and 171 and 386 and 377.5 and 283.5 and 348 and 279
  NM_021974 LUA#64 FlexMap level: 268 and 1606 and 2307 and 2301 and 1472 and 1996 and 1890 and 1117.5
  NM_024045 LUA#65 FlexMap level: 85 and 495 and 831 and 833.5 and 527 and 681 and 728.5 and 471
  NM_032571 LUA#15 FlexMap level: 31 and 109 and 203 and 222.5 and 165.5 and 191 and 270.5 and 253.5
  NM_173823 LUA#6 FlexMap level: 84 and 594.5 and 1106.5 and 1168.5 and 1130.5 and 1080 and 1163 and 807
  TFRC LUA#92 FlexMap level: 89 and 400 and 794 and 910.5 and 811 and 827.5 and 1042 and 592
HL60 microtiter well cultures, one value per tretinoin well
  NM_021203 (LUA#80) FlexMap level: 416 and 381.5 and 345 and 387 and 409 and 426 and 427 and 412
